Data published in BindingDB's records for doi:10.1021/jm970470c (Warner-Lambert, 1997).
pIC50: −log10 of the molar value.

Test: Concentration required to inhibit 50% of the cultured colonies of H-Ras-Fcells.

| pIC50 | SMILES |
| --- | --- |
| 6.24 | C[C@@H](CNC(=O)CN(Cc1ccc(OCc2ccccc2)cc1)C(=O)[C@H](Cc1cnc[nH]1)NC(=O)OCc1ccccc1)c1ccccc1 [[(S)-1-{(4-Benzyloxy-benzyl)-[((R)-2-phenyl-propylcarbamoyl)-methyl]-carbamoyl}-2-(3H-imidazol-4-yl)-ethyl]-carbamic acid benzyl ester] |
| < 6.00 | CCCC(CNC(=O)CN(Cc1ccc(OCc2ccccc2)cc1)C(=O)[C@H](Cc1cnc[nH]1)NC(=O)OCc1ccccc1)c1ccccc1 (stereo partly drawn) [[(S)-1-{(4-Benzyloxy-benzyl)-[(2-phenyl-pentylcarbamoyl)-methyl]-carbamoyl}-2-(3H-imidazol-4-yl)-ethyl]-carbamic acid benzyl ester] |
| 5.37 | O=C(CN(Cc1ccc(OCc2ccccc2)cc1)C(=O)[C@H](Cc1cnc[nH]1)NC(=O)OCc1ccccc1)NCCc1ccccc1 [[(S)-1-[(4-Benzyloxy-benzyl)-(phenethylcarbamoyl-methyl)-carbamoyl]-2-(1H-imidazol-4-yl)-ethyl]-carbamic acid benzyl ester] |
| 6.52 | C[C@H](CNC(=O)CN(Cc1ccc(OCc2ccccc2)cc1)C(=O)[C@H](Cc1cnc[nH]1)NC(=O)OCc1ccccc1)c1ccccc1 [[(S)-1-{(4-Benzyloxy-benzyl)-[((S)-2-phenyl-propylcarbamoyl)-methyl]-carbamoyl}-2-(3H-imidazol-4-yl)-ethyl]-carbamic acid benzyl ester] |
| 6.72 | N#CC(CNC(=O)CN(Cc1ccc(OCc2ccccc2)cc1)C(=O)[C@H](Cc1cnc[nH]1)NC(=O)OCc1ccccc1)c1ccccc1 (stereo partly drawn) [[(S)-1-{(4-Benzyloxy-benzyl)-[(2-cyano-2-phenyl-ethylcarbamoyl)-methyl]-carbamoyl}-2-(3H-imidazol-4-yl)-ethyl]-carbamic acid benzyl ester] |
| 6.15 | C[C@H](Cc1ccccc1)NC(=O)CN(Cc1ccc(OCc2ccccc2)cc1)C(=O)[C@H](Cc1cnc[nH]1)NC(=O)OCc1ccccc1 [[(S)-1-{(4-Benzyloxy-benzyl)-[((R)-1-methyl-2-phenyl-ethylcarbamoyl)-methyl]-carbamoyl}-2-(3H-imidazol-4-yl)-ethyl]-carbamic acid benzyl ester] |
| < 6.00 | CCC(CC)(CNC(=O)CN(Cc1ccc(OCc2ccccc2)cc1)C(=O)[C@H](Cc1cnc[nH]1)NC(=O)OCc1ccccc1)c1ccccc1 [[(S)-1-{(4-Benzyloxy-benzyl)-[(2-ethyl-2-phenyl-butylcarbamoyl)-methyl]-carbamoyl}-2-(3H-imidazol-4-yl)-ethyl]-carbamic acid benzyl ester] |
| 6.74 | CC(C)(CNC(=O)CN(Cc1ccc(OCc2ccccc2)cc1)C(=O)[C@H](Cc1cnc[nH]1)NC(=O)OCc1ccccc1)c1ccccc1 [[(S)-1-{(4-Benzyloxy-benzyl)-[(2-methyl-2-phenyl-propylcarbamoyl)-methyl]-carbamoyl}-2-(3H-imidazol-4-yl)-ethyl]-carbamic acid benzyl ester] |
| 5.20 | C[C@@H](Cc1ccccc1)NC(=O)CN(Cc1ccc(OCc2ccccc2)cc1)C(=O)[C@H](Cc1cnc[nH]1)NC(=O)OCc1ccccc1 [[(S)-1-{(4-Benzyloxy-benzyl)-[((S)-1-methyl-2-phenyl-ethylcarbamoyl)-methyl]-carbamoyl}-2-(3H-imidazol-4-yl)-ethyl]-carbamic acid benzyl ester] |
| 7.06 | O=C(CN(Cc1ccc(OCc2ccccc2)cc1)C(=O)[C@H](Cc1cnc[nH]1)NC(=O)OCc1ccccc1)NCC1(c2ccccc2)CCC1 [[(S)-1-((4-Benzyloxy-benzyl)-{[(1-phenyl-cyclobutylmethyl)-carbamoyl]-methyl}-carbamoyl)-2-(3H-imidazol-4-yl)-ethyl]-carbamic acid benzyl ester] |
| 6.74 | O=C(CN(Cc1ccc(OCc2ccccc2)cc1)C(=O)[C@H](Cc1cnc[nH]1)NC(=O)OCc1ccccc1)NCC1(c2ccccc2)CC1 [[(S)-1-((4-Benzyloxy-benzyl)-{[(1-phenyl-cyclopropylmethyl)-carbamoyl]-methyl}-carbamoyl)-2-(3H-imidazol-4-yl)-ethyl]-carbamic acid benzyl ester] |
| 4.84 | O=C(CN(Cc1ccc(OCc2ccccc2)cc1)C(=O)[C@H](Cc1cnc[nH]1)NC(=O)OCc1ccccc1)NCCOCc1ccccc1 [[(S)-1-{(4-Benzyloxy-benzyl)-[(2-benzyloxy-ethylcarbamoyl)-methyl]-carbamoyl}-2-(1H-imidazol-4-yl)-ethyl]-carbamic acid benzyl ester] |
| 6.51 | CC(CNC(=O)CN(Cc1ccc(OCc2ccccc2)cc1)C(=O)[C@H](Cc1cnc[nH]1)NC(=O)OCc1ccccc1)c1ccccc1 (stereo partly drawn) [[(S)-1-{(4-Benzyloxy-benzyl)-[(2-phenyl-propylcarbamoyl)-methyl]-carbamoyl}-2-(3H-imidazol-4-yl)-ethyl]-carbamic acid benzyl ester] |
| 6.48 | O=C(CN(Cc1ccc(OCc2ccccc2)cc1)C(=O)[C@H](Cc1cnc[nH]1)NC(=O)OCc1ccccc1)NCC1(c2ccccc2)CCCC1 [[(S)-1-((4-Benzyloxy-benzyl)-{[(1-phenyl-cyclopentylmethyl)-carbamoyl]-methyl}-carbamoyl)-2-(3H-imidazol-4-yl)-ethyl]-carbamic acid benzyl ester] |
| 6.40 | CCC(CNC(=O)CN(Cc1ccc(OCc2ccccc2)cc1)C(=O)[C@H](Cc1cnc[nH]1)NC(=O)OCc1ccccc1)c1ccccc1 (stereo partly drawn) [[(S)-1-{(4-Benzyloxy-benzyl)-[(2-phenyl-butylcarbamoyl)-methyl]-carbamoyl}-2-(3H-imidazol-4-yl)-ethyl]-carbamic acid benzyl ester] |
